# Data reported in patent publication US20230265614A1, “WATER INSOLUBLE, HIGH MELTING POINT SACCHARIDE FATTY ACID ESTERS (SFAE)” (GREENTECH GLOBAL PTE. LTD., priority 2021, published 2023).
# Assay: Solubility in water at 25° C. of specific SFAEs
# Type: physicochemical
# Conditions: water insoluble = does not dissolve in water at 25° C.
row,Substance,Solubility in Water at 25° C.
1,raffinose monolaurate,soluble
2,raffinose monostearate,soluble
3,trehalose dilaurate,Insoluble
4,trehalose dimyristate,Insoluble
5,trehalose dipalmitate,Insoluble
6,trehalose distearate,Insoluble
7,trehalose monolaurate,soluble
8,trehalose monomyristate,Insoluble
9,trehalose monopalmitate,Insoluble
10,trehalose monostearate,Insoluble
